Reference: ChEMBL document CHEMBL1151963 (J Med Chem, 2009)
One block for each compound: values may come before it. Calls of active or inactive are those of the source. The calls are words filed in the database; no cut-off is given here.

How the values were obtained:
LNCaP = assay: Cytotoxicity against human LNCAP cells after 3 days by MTS assay; assay type: functional, cell-based; conditions: 72 h
[1] = biological target: T1, Serine/threonine-protein kinase mTOR (Homo sapiens, UniProt P42345); assay: Inhibition of flag-tagged truncated human mTOR (1360-2549) expressed in HEK293 cells by DELFIA assay; assay type: cell-based
[2] = biological target: Phosphatidylinositol 4,5-bisphosphate 3-kinase catalytic subunit alpha isoform (Homo sapiens, UniProt P42336); assay: Inhibition of PI3Kalpha expressed in Escherichia coli by microtiter plate-based fluorescence polarization assay
Chain of Phosphatidylinositol 4,5-bisphosphate 3-kinase catalytic subunit alpha isoform (P42336 whole entry, canonical isoform): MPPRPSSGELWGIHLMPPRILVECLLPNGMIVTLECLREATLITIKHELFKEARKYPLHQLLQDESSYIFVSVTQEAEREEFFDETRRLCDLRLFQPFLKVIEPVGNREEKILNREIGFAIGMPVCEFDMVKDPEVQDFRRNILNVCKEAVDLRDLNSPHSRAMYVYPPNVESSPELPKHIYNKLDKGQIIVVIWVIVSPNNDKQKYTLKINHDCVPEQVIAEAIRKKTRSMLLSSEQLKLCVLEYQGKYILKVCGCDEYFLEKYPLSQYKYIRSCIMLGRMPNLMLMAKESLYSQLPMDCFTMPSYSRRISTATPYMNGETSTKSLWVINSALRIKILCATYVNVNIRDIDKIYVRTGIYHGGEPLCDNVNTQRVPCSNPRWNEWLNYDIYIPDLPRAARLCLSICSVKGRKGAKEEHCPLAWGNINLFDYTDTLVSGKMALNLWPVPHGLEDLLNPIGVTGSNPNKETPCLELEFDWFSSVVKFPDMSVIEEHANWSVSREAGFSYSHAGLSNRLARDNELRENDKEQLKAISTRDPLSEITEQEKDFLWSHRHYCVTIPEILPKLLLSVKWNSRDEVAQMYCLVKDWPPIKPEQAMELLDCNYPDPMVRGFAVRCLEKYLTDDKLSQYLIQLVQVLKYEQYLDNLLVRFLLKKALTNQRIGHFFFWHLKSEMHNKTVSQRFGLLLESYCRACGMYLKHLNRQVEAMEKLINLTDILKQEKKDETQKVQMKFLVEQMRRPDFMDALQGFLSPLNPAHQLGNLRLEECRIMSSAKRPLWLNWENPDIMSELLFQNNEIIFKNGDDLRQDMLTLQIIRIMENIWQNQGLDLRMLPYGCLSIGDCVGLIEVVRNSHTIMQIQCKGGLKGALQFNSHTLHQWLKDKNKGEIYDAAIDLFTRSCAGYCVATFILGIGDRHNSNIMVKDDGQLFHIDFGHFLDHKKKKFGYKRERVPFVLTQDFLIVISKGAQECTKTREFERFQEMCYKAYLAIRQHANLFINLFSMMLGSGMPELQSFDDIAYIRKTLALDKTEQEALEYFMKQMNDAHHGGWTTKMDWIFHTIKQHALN

[3] = Metabolic stability in nude mouse microsomes assessed as half life at 1 uM by HPLC-MS/MS analysis; assay type: ADME, Microsome
[4] = biological target: Casein kinase I isoform gamma-1 (Homo sapiens, UniProt Q9HCP0); assay: Inhibition of CK1gamma1 after 1 hr by mobility shift electrophoresis assay
Chain of Casein kinase I isoform gamma-1 (Q9HCP0 whole entry, canonical isoform): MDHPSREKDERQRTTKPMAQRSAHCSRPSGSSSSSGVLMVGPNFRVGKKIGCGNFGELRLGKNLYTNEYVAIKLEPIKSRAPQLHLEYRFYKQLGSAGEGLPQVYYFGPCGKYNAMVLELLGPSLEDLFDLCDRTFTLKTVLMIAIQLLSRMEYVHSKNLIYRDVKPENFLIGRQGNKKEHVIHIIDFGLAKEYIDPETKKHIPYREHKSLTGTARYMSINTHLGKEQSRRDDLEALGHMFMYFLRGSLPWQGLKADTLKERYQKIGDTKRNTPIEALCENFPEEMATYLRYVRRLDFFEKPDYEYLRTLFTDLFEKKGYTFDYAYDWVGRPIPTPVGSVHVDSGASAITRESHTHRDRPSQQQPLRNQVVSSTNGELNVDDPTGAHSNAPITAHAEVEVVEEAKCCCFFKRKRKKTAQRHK

Mus musculus [5] = assay: Inhibition of PI3K in BALB/c nu/nu mouse bearing PTEN-null human PC3MM2 xenograft tumor assessed as suppression of AKT phosphorylation at T308 at 50 mg/kg, ip administered as single dose for 4 hrs; assay type: functional, organism-based; parameters: dose 50 mg/kg
[6] = Antitumor activity against human U87MG cells xenografted in BALB/c nu/nu mouse at 50 mg/kg, ip administered once daily for 5 days measured on day 7 relative to control; assay type: functional, U-87MG ATCC; conditions: route intraperitoneal
[7] = biological target: Tyrosine-protein kinase Lyn (Homo sapiens, UniProt P07948); assay: Inhibition of LYN after 1 hr by mobility shift electrophoresis assay
[8] = Inhibition of PIKK assessed as blockade of VP16-induced phosphorylation of p53 at S15 at 3 umol/L
[9] = Antitumor activity against human U87MG cells xenografted in BALB/c nu/nu mouse at 50 mg/kg, ip administered twice daily for 5 days measured on day 7 relative to control; assay type: functional, U-87MG ATCC; conditions: route intraperitoneal
[10] = biological target: MAP kinase-activated protein kinase 2 (Homo sapiens, UniProt P49137); assay: Inhibition of MK2 after 1 hr by mobility shift electrophoresis assay
Mus musculus [11] = assay: Inhibition of mTOR complex 2 in BALB/c nu/nu mouse bearing PTEN-null human PC3MM2 xenograft tumor assessed as suppression of P-AKT phosphorylation at S473 at 50 mg/kg, ip administered as single dose for 4 to 6 hrs; assay type: functional, organism-based; parameters: dose 50 mg/kg
[12] = biological target: Cyclin-dependent kinase 1/cyclin B1 (Homo sapiens, UniProt P06493); assay: Inhibition of CDK1/cyclinB after 1 hr by mobility shift electrophoresis assay; assay type: protein-complex assay
[13] = biological target: Inhibitor of nuclear factor kappa-B kinase subunit alpha (Homo sapiens, UniProt O15111); assay: Inhibition of IKKalpha after 1 hr by mobility shift electrophoresis assay
[14] = biological target: T1, Serine/threonine-protein kinase mTOR; assay: Inhibition of mTOR complex 1 in human U87MG cells assessed as suppression of S6K phosphorylation at T389 treated for 6 hrs by immunoblotting analysis; assay type: cell-based; conditions: U-87MG ATCC
[15] = biological target: Serine/threonine-protein kinase Chk1 (Homo sapiens, UniProt O14757); assay: Inhibition of CHK1 after 1 hr by mobility shift electrophoresis assay
[16] = biological target: RAC-alpha serine/threonine-protein kinase (Homo sapiens, UniProt P31749); assay: Inhibition of PKBalpha after 1 hr by mobility shift electrophoresis assay
[17] = biological target: Mitogen-activated protein kinase 1 (Homo sapiens, UniProt P28482); assay: Inhibition of ERK2 after 1 hr by mobility shift electrophoresis assay
Chain of Mitogen-activated protein kinase 1 (P28482 whole entry): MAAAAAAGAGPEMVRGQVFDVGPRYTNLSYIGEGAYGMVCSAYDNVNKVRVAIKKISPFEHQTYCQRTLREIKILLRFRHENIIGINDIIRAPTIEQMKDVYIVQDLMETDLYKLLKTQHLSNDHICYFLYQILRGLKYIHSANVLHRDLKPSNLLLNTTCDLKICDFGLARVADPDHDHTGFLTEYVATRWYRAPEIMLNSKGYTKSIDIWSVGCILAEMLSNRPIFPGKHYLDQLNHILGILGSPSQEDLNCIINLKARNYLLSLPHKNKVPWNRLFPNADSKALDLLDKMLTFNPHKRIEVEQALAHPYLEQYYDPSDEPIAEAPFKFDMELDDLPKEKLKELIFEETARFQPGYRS

[18] = biological target: T1, Serine/threonine-protein kinase mTOR; assay: Inhibition of mTOR complex 1 in human PC3MM2 cells assessed as suppression of S6K phosphorylation at T389 treated for 6 hrs by immunoblotting analysis; assay type: cell-based
[19] = biological target: Tyrosine-protein kinase ABL1 (Homo sapiens, UniProt P00519); assay: Inhibition of ABL1 after 1 hr by mobility shift electrophoresis assay
[20] = biological target: Phosphatidylinositol 4,5-bisphosphate 3-kinase catalytic subunit gamma isoform (Homo sapiens, UniProt P48736); assay: Inhibition of PI3Kgamma
[21] = biological target: Proto-oncogene tyrosine-protein kinase Src (Homo sapiens, UniProt P12931); assay: Inhibition of SRC after 1 hr by mobility shift electrophoresis assay
Chain of Proto-oncogene tyrosine-protein kinase Src (P12931 2-536 limits assumed): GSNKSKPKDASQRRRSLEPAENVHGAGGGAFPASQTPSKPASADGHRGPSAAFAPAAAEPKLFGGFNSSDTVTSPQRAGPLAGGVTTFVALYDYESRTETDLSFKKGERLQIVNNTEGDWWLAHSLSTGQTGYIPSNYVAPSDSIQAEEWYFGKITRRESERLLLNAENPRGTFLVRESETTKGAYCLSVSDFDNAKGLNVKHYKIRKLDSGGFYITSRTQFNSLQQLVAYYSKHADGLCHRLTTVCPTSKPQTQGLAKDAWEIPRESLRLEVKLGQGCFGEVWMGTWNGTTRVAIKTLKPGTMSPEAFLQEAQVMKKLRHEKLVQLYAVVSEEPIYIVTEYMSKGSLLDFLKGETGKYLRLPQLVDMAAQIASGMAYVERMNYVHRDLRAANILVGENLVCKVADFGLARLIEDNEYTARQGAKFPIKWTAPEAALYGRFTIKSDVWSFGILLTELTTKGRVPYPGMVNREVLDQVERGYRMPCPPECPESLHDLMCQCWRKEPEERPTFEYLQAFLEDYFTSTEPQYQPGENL

[22] = Inhibition of PIKK assessed as blockade of VP16-induced phosphorylation of ChK1 at S345 at 3 umol/L
[23] = biological target: Cyclin-dependent kinase 2 (Homo sapiens, UniProt P24941); assay: Inhibition of CDK2/cyclinA after 1 hr by mobility shift electrophoresis assay
[24] = biological target: Protein kinase C beta type (Homo sapiens, UniProt P05771); assay: Inhibition of PKCbeta after 1 hr by mobility shift electrophoresis assay
[25] = biological target: Mitogen-activated protein kinase 14 (Homo sapiens, UniProt Q16539); assay: Inhibition of p38alpha after 1 hr by mobility shift electrophoresis assay
[26] = biological target: Mitogen-activated protein kinase kinase kinase kinase 2 (Homo sapiens, UniProt Q12851); assay: Inhibition of GCK after 1 hr by mobility shift electrophoresis assay
Chain of Mitogen-activated protein kinase kinase kinase kinase 2 (Q12851 whole entry): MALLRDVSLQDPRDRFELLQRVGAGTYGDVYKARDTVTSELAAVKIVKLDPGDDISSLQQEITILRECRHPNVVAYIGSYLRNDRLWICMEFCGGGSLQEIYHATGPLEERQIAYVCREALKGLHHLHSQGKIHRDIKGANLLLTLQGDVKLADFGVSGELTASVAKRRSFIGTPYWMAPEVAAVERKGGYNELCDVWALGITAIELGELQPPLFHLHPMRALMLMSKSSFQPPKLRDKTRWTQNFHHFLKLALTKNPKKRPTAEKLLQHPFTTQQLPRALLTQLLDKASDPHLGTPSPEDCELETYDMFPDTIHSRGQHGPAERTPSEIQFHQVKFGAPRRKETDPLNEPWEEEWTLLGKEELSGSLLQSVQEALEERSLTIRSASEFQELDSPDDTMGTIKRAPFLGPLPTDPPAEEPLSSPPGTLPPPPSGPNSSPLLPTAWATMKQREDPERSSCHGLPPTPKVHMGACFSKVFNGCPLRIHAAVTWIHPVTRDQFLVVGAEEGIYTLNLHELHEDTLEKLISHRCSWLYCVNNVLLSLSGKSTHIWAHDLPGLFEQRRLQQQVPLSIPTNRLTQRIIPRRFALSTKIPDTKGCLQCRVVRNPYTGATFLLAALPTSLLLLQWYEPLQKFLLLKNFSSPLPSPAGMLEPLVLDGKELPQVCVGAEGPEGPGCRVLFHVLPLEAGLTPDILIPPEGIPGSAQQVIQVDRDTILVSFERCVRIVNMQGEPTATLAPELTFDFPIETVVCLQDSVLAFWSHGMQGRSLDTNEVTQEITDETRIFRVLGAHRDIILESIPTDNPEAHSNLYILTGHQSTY

[27] = biological target: Rho-associated protein kinase 1 (Homo sapiens, UniProt Q13464); assay: Inhibition of ROCK1 after 1 hr by mobility shift electrophoresis assay
[28] = biological target: Ribosomal protein S6 kinase alpha-1 (Homo sapiens, UniProt Q15418); assay: Inhibition of RSK1 after 1 hr by mobility shift electrophoresis assay
[29] = biological target: Vascular endothelial growth factor receptor 2 (Homo sapiens, UniProt P35968); assay: Inhibition of VEGFR2 after 1 hr by mobility shift electrophoresis assay
[30] = biological target: Tyrosine-protein kinase Fyn (Homo sapiens, UniProt P06241); assay: Inhibition of FYN after 1 hr by mobility shift electrophoresis assay
[31] = biological target: Tyrosine-protein kinase HCK (Homo sapiens, UniProt P08631); assay: Inhibition of HCK after 1 hr by mobility shift electrophoresis assay
Mus musculus [32] = assay: Inhibition of mTOR complex 1 in BALB/c nu/nu mouse bearing PTEN-null human PC3MM2 xenograft tumor assessed as suppression of S6K phosphorylation at T389 at 50 mg/kg, ip administered as single dose for 6 hrs; assay type: functional, organism-based; parameters: dose 50 mg/kg
[33] = biological target: Protein kinase C alpha type (Homo sapiens, UniProt P17252); assay: Inhibition of PKCalpha after 1 hr by mobility shift electrophoresis assay
[34] = biological target: Platelet-derived growth factor receptor alpha (Homo sapiens, UniProt P16234); assay: Inhibition of PDGFRalpha after 1 hr by mobility shift electrophoresis assay
Chain of Platelet-derived growth factor receptor alpha (P16234 whole entry): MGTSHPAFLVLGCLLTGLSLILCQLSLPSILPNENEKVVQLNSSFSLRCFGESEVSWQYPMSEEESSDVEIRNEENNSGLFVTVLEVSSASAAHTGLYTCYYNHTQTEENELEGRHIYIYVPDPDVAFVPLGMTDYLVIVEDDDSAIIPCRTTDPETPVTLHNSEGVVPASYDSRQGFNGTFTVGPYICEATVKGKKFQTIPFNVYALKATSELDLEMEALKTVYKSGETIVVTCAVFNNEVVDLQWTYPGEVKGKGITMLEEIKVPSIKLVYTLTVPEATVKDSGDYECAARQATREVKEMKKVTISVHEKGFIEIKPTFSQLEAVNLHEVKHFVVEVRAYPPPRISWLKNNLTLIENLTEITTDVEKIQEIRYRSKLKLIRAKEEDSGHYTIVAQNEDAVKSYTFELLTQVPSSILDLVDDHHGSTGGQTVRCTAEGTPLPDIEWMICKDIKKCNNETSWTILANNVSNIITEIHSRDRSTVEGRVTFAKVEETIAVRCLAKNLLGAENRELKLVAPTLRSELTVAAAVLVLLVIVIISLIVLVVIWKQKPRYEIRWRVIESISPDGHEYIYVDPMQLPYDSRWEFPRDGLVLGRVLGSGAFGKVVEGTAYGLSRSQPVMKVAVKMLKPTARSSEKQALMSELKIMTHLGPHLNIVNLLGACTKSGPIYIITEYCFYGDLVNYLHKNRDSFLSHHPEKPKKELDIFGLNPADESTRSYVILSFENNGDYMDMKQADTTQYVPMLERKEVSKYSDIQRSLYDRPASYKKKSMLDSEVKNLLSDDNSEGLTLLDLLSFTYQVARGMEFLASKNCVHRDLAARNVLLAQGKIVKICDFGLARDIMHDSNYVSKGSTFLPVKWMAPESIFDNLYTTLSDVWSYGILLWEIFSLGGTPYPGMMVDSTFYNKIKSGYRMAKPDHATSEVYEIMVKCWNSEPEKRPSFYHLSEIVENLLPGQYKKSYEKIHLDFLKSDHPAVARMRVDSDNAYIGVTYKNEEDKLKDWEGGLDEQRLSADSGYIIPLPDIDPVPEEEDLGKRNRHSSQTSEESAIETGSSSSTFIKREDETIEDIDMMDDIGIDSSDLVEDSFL

[35] = biological target: T1, Serine/threonine-protein kinase mTOR; assay: Inhibition of mTOR complex 2 in human PC3MM2 cells assessed as suppression of P-AKT phosphorylation at S473 treated for 6 hrs by immunoblotting analysis; assay type: cell-based
[36] = biological target: T1, Serine/threonine-protein kinase mTOR; assay: Inhibition of mTOR complex 2 in human U87MG cells assessed as suppression of AKT phosphorylation at S473 treated for 6 hrs by immunoblotting analysis; assay type: cell-based; conditions: U-87MG ATCC
Aurora kinase B = Aurora kinase B (Homo sapiens, UniProt Q96GD4); assay: Inhibition of Aurora B after 1 hr by mobility shift electrophoresis assay
[37] = Inhibition of PKA after 1 hr by mobility shift electrophoresis assay
Mus musculus [38] = assay: Inhibition of mTOR complex 2 in BALB/c nu/nu mouse bearing PTEN-null human PC3MM2 xenograft tumor assessed as suppression of AKT phosphorylation at S473 at 50 mg/kg, ip administered as single dose for 4 hrs; assay type: functional, organism-based; parameters: dose 50 mg/kg
Mus musculus [39] = assay: Inhibition of mTOR complex 1 in BALB/c nu/nu mouse bearing PTEN-null human PC3MM2 xenograft tumor assessed as suppression of S6K phosphorylation at T389 at 50 mg/kg, ip administered as single dose for 4 hrs; assay type: functional, organism-based; parameters: dose 50 mg/kg

SMILES: O=C(Nc1ccncc1)Nc1ccc(-c2nc(N3CCOCC3)c3cnn(C4CCN(C(=O)c5cccnc5)CC4)c3n2)cc1
IC50 (LNCaP): 150 nM
IC50 [1]: 0.83 nM
IC50 [2]: 548 nM
half-life at 1 µM [3]: 22 min

SMILES: CNC(=O)Nc1ccc(-c2nc(N3CCOCC3)c3cnn(C4CCNCC4)c3n2)cc1
IC50 (LNCaP): 1370 nM
IC50 [1]: 1.4 nM
half-life at 1 µM [3]: > 30 min

SMILES: CNC(=O)Nc1ccc(-c2nc(N3CCOCC3)c3cnn(C4CCN(Cc5cccnc5)CC4)c3n2)cc1
half-life at 1 µM [3]: 12 min

SMILES: CNC(=O)Nc1ccc(-c2nc(N3CCOCC3)c3cnn(C4CCN(C(=O)OC)CC4)c3n2)cc1
Activity (Mus musculus [5]): inactive
T/C [6]: 0.57
Activity (Mus musculus [38]): Active
Activity (Mus musculus [39]): Active

SMILES: CNC(=O)Nc1ccc(-c2nc(N3CCOCC3)c3cnn(C4CCN(Cc5ccccc5)CC4)c3n2)cc1
half-life at 1 µM [3]: 3 min

More lines, main results first:

IC50 [1]: 46 nM
IC50 [2]: 631 nM
SMILES: CCOC(=O)Nc1ccc(-c2nc(N3CCOCC3)c3cnn(C4CCN(Cc5ccccc5)CC4)c3n2)cc1
IC50 (LNCaP): 3400 nM

IC50 [1]: 1 nM
half-life at 1 µM [3]: > 30 min
SMILES: COC(=O)N1CCC(n2ncc3c(N4CCOCC4)nc(-c4ccc(NC(=O)OCCO)cc4)nc32)CC1
IC50 (LNCaP): 28 nM

IC50 [4]: > 50000 nM
IC50 [7]: > 50000 nM
Activity [8]: inactive
IC50 [10]: > 50000 nM
IC50 [12]: > 50000 nM
IC50 [13]: > 50000 nM
IC50 [15]: > 50000 nM
IC50 [16]: > 50000 nM
IC50 [1]: 4.3 nM
IC50 [2]: 1030 nM
IC50 [17]: > 50000 nM
IC50 [19]: > 50000 nM
IC50 [20]: 6320 nM
IC50 [21]: > 50000 nM
Activity [22]: inactive
IC50 [23]: > 50000 nM
IC50 [24]: > 50000 nM
IC50 [25]: > 50000 nM
IC50 [26]: > 50000 nM
IC50 [27]: > 50000 nM
IC50 [28]: > 50000 nM
half-life at 1 µM [3]: > 30 min
IC50 [29]: > 50000 nM
IC50 [30]: > 50000 nM
IC50 [31]: > 50000 nM
IC50 [33]: > 50000 nM
IC50 [34]: > 50000 nM
Activity [35]: Dose-dependent effect
Activity [36]: Dose-dependent effect
IC50 (Aurora kinase B): > 50000 nM
IC50 [37]: > 50000 nM
SMILES: COC(=O)Nc1ccc(-c2nc(N3CCOCC3)c3cnn(C4CCN(C(=O)OC)CC4)c3n2)cc1
Activity (Mus musculus [5]): inactive
IC50 (LNCaP): 355 nM
T/C [6]: 0.62
T/C [9]: 0.14
Activity (Mus musculus [11]): Active
Activity [14]: Dose-dependent effect
Activity [18]: Dose-dependent effect
Activity (Mus musculus [32]): Active

IC50 ([1]; hek293): 2 nM
SMILES: CNC(=O)Nc1ccc(-c2nc(N3CCOCC3)c3cnn(C4CCN(C(=O)NC)CC4)c3n2)cc1
IC50 (LNCaP): 2570 nM

IC50 ([1]; hek293): 0.08 nM
IC50 [2]: 6 nM
half-life at 1 µM [3]: 13 min
SMILES: COC(=O)N1CCC(n2ncc3c(N4CCOCC4)nc(-c4ccc(NC(=O)Nc5ccc(CO)cc5)cc4)nc32)CC1
IC50 (LNCaP): < 1 nM

half-life at 1 µM [3]: 6 min
SMILES: O=C(Nc1ccc(-c2nc(N3CCOCC3)c3cnn(C4CCN(Cc5cccnc5)CC4)c3n2)cc1)OCCO
